From patent US8106205B2, “N[S(4-aryl-triazol-3-yl)α-mercaptoacetyl]p-amino benzoic acids as HIV reverse transcriptase inhibitors” (priority 2004, dated 2012)
Like-named read-outs stand apart in the source and are kept apart here.

Key:
wild-type (WT) HIV = test: EC50 against wild-type HIV; assay type: cell-based
wild type HIV RT = wild type HIV RT (Human immunodeficiency virus type 1 group M subtype B, UniProt P04585); test: IC50 against wild-type HIV reverse transcriptase; assay type: biochemical
Experimental: Compounds of the invention were tested against the wild-type and four mutant HIV reverse transcriptases. The results are listed in Table 1 and Table 2 as EC50 (nM) and IC50 (nM). In Tables 1 and 2, A represents <50 nM, B is between 50 and 100 nM, and C is >100 nM. ND is not determined. […]

[1] = Table 2, wild-type, read-out: EC50 WT
[2] = Human immunodeficiency virus 1, read-out: EC50 WT (nM)
[3] = Human immunodeficiency virus 1, read-out: EC50 WT

| SMILES | EC50 (wild-type (WT) HIV; [1]) [nM] | IC50 (wild type HIV RT; Table 2, wild-type RT) [nM] | EC50 (wild-type (WT) HIV; [2]) [nM] | IC50 (wild type HIV RT; Table 1, wild-type RT) [nM] | EC50 (wild-type (WT) HIV; [3]) [nM] |
| --- | --- | --- | --- | --- | --- |
| NS(=O)(=O)c1ccc(NC(=O)CSc2nnc(Br)n2-c2c(Cl)cc(C3CCC3)c3ccccc23)c(Cl)c1 (single isomer, unassigned) [Compound 68] | < 50 | < 50 |  |  |  |
| NS(=O)(=O)c1ccc(NC(=O)CSc2nnc(Br)n2-c2c(Cl)cc(C3CCC3)c3ccccc23)c(Cl)c1 (single isomer, unassigned) [Compound 69] | < 50 | < 50 |  |  |  |
| COc1ccc2c(C)ccc(-n3c(Br)nnc3SCC(=O)Nc3ccc(C(=O)O)cc3Cl)c2c1 [Compound 15] |  |  | < 50 | < 50 |  |
| Cc1cc(C2CC2)cc(Cl)c1-n1c(Br)nnc1SCC(=O)Nc1ccc(C(=O)O)cc1Cl [Compound 20] |  |  | < 50 | < 50 |  |
| CC(Sc1nnc(Br)n1-c1ccc(C2CC2)c2ccccc12)C(=O)Nc1ccc(S(N)(=O)=O)cc1Cl (centres unmarked) [Compound 44] |  | < 50 |  |  | < 50 |
| NS(=O)(=O)c1ccc(NC(=O)CSc2nnc(Br)n2-c2ccc(C3CC3)c3ccccc23)c(Cl)c1 [Compound 45] | < 50 | < 50 |  |  |  |
| NS(=O)(=O)c1ccc(NC(=O)CSc2nnc(Br)n2-c2ccc(C3CC3)cc2)c(Cl)c1 [Compound 46] |  | < 50 |  |  | < 50 |
| CC(=O)OC(C)OC(=O)NS(=O)(=O)c1ccc(NC(=O)CSc2nnc(Br)n2-c2ccc(C3CC3)c3ccccc23)c(Cl)c1 (centres unmarked) [Compound 47] | < 50 | < 50 |  |  |  |
| CC(=O)NS(=O)(=O)c1ccc(NC(=O)CSc2nnc(Br)n2-c2ccc(C3CC3)c3ccccc23)c(Cl)c1 [Compound 48] | < 50 | < 50 |  |  |  |
| CCc1ccc(-n2c(Br)nnc2SCC(=O)Nc2ccc(S(N)(=O)=O)cc2Cl)c2c1CCCC2 [Compound 50] | < 50 | < 50 |  |  |  |
| Cc1cc(S(N)(=O)=O)ccc1NC(=O)CSc1nnc(Br)n1-c1ccc(C)c2c1CCCC2 [Compound 51] | < 50 | < 50 |  |  |  |
| Cc1ccc2c(C)ccc(-n3c(Br)nnc3SCC(=O)Nc3ccc(S(N)(=O)=O)cc3Br)c2c1 [Compound 52] | < 50 | < 50 |  |  |  |
| Cc1cc(C)c2ccccc2c1-n1c(CF)nnc1SCC(=O)Nc1ccc(S(N)(=O)=O)cc1Cl [Compound 53] | < 50 | < 50 |  |  |  |
| Cc1cc(C)c(-n2c(SCC(=O)Nc3ccc(S(N)(=O)=O)cc3Cl)nnc2C(F)(F)F)c2c1CCCC2 [Compound 54] |  | < 50 |  |  | < 50 |
| CCCc1ccc(-n2c(Br)nnc2SCC(=O)Nc2ccc(S(N)(=O)=O)cc2Cl)c2ccccc12 [Compound 55] | < 50 | < 50 |  |  |  |
| CCCc1ccc(-n2c(Br)nnc2SCC(=O)Nc2ccc(S(N)(=O)=O)cc2C)c2ccccc12 [Compound 56] | < 50 | < 50 |  |  |  |
| CCc1ccc(-n2c(Br)nnc2SCC(=O)Nc2ccc(S(N)(=O)=O)cc2Cl)c2ccccc12 [Compound 57] | < 50 | < 50 |  |  |  |
| CCCC(=O)NS(=O)(=O)c1ccc(NC(=O)CSc2nnc(Br)n2-c2ccc(C3CC3)c3ccccc23)c(Cl)c1 [Compound 58] |  | < 50 |  |  | < 50 |

| SMILES | EC50 (wild-type (WT) HIV; [1]) [nM] | IC50 (wild type HIV RT; Table 2, wild-type RT) [nM] | EC50 (wild-type (WT) HIV; [2]) [nM] | IC50 (wild type HIV RT; Table 1, wild-type RT) [nM] | EC50 (wild-type (WT) HIV; [3]) [nM] |
| --- | --- | --- | --- | --- | --- |
| N[C@@H](CC(=O)NS(=O)(=O)c1ccc(NC(=O)CSc2nnc(Cl)n2-c2ccc(C3CC3)c3ccccc23)c(Cl)c1)C(=O)O [Compound 59] | < 50 | < 50 |  |  |  |
| NCCC[C@@H](N)C(=O)NS(=O)(=O)c1ccc(NC(=O)CSc2nnc(Br)n2-c2ccc(C3CC3)c3ccccc23)c(Cl)c1 [Compound 60] | < 50 | < 50 |  |  |  |
| Cc1cc(C2CC2)ccc1-n1c(Br)nnc1SCC(=O)Nc1ccc(S(N)(=O)=O)cc1Cl [Compound 61] | < 50 |  |  |  |  |
| NCCC(N)C(=O)NS(=O)(=O)c1ccc(NC(=O)CSc2nnc(Br)n2-c2ccc(C3CC3)c3ccccc23)c(Cl)c1 (centres unmarked) [Compound 62] | < 50 | < 50 |  |  |  |
| N[C@@H](CC(=O)NS(=O)(=O)c1ccc(NC(=O)CSc2nnc(Br)n2-c2ccc(C3CC3)c3ccccc23)c(Cl)c1)C(=O)O [Compound 63] | < 50 | < 50 |  |  |  |
| N[C@@H](CCC(=O)NS(=O)(=O)c1ccc(NC(=O)CSc2nnc(Br)n2-c2ccc(C3CC3)c3ccccc23)c(Cl)c1)C(=O)O [Compound 64] | < 50 | < 50 |  |  |  |
| NS(=O)(=O)c1ccc(NC(=O)CSc2nnc(Cl)n2-c2ccc(C3CC3)c3ccccc23)c(Cl)c1 [Compound 65] | < 50 | < 50 |  |  |  |
| NS(=O)(=O)c1ccc(NC(=O)CSc2nnc(Br)n2-c2ccc(C3CC3)cc2OC(F)(F)F)c(Cl)c1 [Compound 66] |  | < 50 |  |  | < 50 |
| COCCC(=O)NS(=O)(=O)c1ccc(NC(=O)CSc2nnc(Br)n2-c2ccc(C3CC3)c3ccccc23)c(Cl)c1 [Compound 67] |  | < 50 |  |  | < 50 |
| Cc1cc(C2CC2)cc(Cl)c1-n1c(Br)nnc1SCC(=O)Nc1ccc(S(N)(=O)=O)cc1Cl [Compound 70] |  | < 50 |  |  | < 50 |
| O=C(O)CCC(=O)NS(=O)(=O)c1ccc(NC(=O)CSc2nnc(Br)n2-c2ccc(C3CC3)c3ccccc23)c(Cl)c1 [Compound 71] | 50 to 100 | < 50 |  |  |  |
| Cc1cc(S(N)(=O)=O)ccc1NC(=O)CSc1nnc(Br)n1-c1ccc(C2CCC2)c2ccccc12 [Compound 72] |  | < 50 |  |  | < 50 |
| NS(=O)(=O)c1ccc(NC(=O)CSc2nnc(Br)n2-c2ccc(C3CCC3)c3ccccc23)c(Cl)c1 [Compound 73] | < 50 | < 50 |  |  |  |
| CCCCC(=O)NS(=O)(=O)c1ccc(NC(=O)CSc2nnc(Br)n2-c2ccc(C3CC3)c3ccccc23)c(Cl)c1 [Compound 74] | < 50 | < 50 |  |  |  |
| CCCCCC(=O)NS(=O)(=O)c1ccc(NC(=O)CSc2nnc(Br)n2-c2ccc(C3CC3)c3ccccc23)c(Cl)c1 [Compound 75] | < 50 | < 50 |  |  |  |
| N#Cc1cccc2c(-n3c(SCC(=O)Nc4ccc(S(N)(=O)=O)cc4Cl)nnc3C(F)F)cccc12 [Compound 76] |  | 50 to 100 |  |  | < 50 |
| Cc1cc(S(N)(=O)=O)ccc1NC(=O)CSc1nnc(C(F)F)n1-c1cccc2c(C#N)cccc12 [Compound 77] |  | > 100 |  |  |  |
